We go through one sequence from publication PMC3667390 (Cancer immunology, immunotherapy : CII, 2009).

The assay concerns peptide-specific CD4 T cells. The format is cell-based, human. The settings on record: ELIspot and proliferation; peptide 10 μg/ml, CEA protein 1 μg/ml, 20-24 hours; day 15 of in vitro stimulation; three replicates.

As for MELLLVNKLKWNLAA [Peptide C140], the “reactivity of peptide-specific CD4 T cells” value is listed as “did not respond”.
